The target in one experiment is T1, MMP-2 (gelatinase A) (Homo sapiens, UniProt P08253).
T1 construct: made in house; host or cells: COS-1 cells transfected with human pro-MMP-2 cDNA (secreted into culture medium)
T1 sequence (P08253 110-660): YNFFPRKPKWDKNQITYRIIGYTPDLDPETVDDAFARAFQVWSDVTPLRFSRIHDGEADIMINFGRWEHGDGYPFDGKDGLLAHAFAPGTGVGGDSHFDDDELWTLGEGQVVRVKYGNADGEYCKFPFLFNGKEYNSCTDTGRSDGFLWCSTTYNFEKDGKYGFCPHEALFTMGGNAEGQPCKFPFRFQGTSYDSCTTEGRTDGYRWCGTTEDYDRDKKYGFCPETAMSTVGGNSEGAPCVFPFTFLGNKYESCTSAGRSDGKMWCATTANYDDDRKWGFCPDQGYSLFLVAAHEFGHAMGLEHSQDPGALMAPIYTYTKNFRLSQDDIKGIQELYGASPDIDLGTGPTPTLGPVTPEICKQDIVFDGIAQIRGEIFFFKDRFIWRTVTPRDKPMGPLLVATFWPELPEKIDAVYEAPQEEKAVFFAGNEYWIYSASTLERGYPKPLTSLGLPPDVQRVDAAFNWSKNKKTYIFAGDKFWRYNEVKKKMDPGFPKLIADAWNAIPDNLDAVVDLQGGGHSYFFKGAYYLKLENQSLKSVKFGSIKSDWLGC
In words: MMP-2 (gelatinase A) inhibitory activity, FITC-labeled type IV collagen degradation. The note with it: 50% inhibition of collagen type IV degradation; activated pro MMP-2 from transfected COS-1 cells; 42° C., 4 h. Format: biochemical. On the procedure: (§1) Experiment 2: MMP-2 (gelatinase A) and MMP-9 (gelatinase B) inhibitory activities.
(§2) Pro MMP-2 was obtained from culture medium separated from human pro-MMP-2 cDNA tranfected COS-1 cells. It was activated by 1 mM (p-aminophenyl)mercury acetic acid, and MMP-9, derived human fibrosarcome,was purchased from Yagai Co. Ltd. Inhibition of both enzyme activities were estimated by enzyme assay using type IV collagenase activity assay kit (Yagai Co. Ltd., Biswaz, C. et al., J. Cell.Biochem., 28, 39 (1984)). MMP-2 or MMP-9 (0.01 U/ml), test compound (several concentrations), and FITC-labeled type IV collagen (derived bovine placenta, 25 μg) were incubated in 100 μl of 0.05M Tris - HCl buffer (pH 7.5) containing 200 mM NaCl and 5 mM CaCl2 at 42° C. for 4 h. Inhibitory activity of compound was evaluated by same as that of MMP-1 assay. Unchanged type IV collagen was precipitated by centrifugation, and the degradation percent of substrate was calculated by comparison with a fluorescence intensity of heat denatured substrate as 100%. Inhibition of enzyme activity was expressed as an IC50 value which was the concentration of test compound necessary to produce 50% inhibition of collagen type IV degradation by enzyme.

The next experiment deals with T2, MMP-9 (gelatinase B) (Homo sapiens, UniProt P14780).
T2 construct: purchased Yagai Co. Ltd; host or cells: human fibrosarcoma
T2 sequence (P14780 94-707): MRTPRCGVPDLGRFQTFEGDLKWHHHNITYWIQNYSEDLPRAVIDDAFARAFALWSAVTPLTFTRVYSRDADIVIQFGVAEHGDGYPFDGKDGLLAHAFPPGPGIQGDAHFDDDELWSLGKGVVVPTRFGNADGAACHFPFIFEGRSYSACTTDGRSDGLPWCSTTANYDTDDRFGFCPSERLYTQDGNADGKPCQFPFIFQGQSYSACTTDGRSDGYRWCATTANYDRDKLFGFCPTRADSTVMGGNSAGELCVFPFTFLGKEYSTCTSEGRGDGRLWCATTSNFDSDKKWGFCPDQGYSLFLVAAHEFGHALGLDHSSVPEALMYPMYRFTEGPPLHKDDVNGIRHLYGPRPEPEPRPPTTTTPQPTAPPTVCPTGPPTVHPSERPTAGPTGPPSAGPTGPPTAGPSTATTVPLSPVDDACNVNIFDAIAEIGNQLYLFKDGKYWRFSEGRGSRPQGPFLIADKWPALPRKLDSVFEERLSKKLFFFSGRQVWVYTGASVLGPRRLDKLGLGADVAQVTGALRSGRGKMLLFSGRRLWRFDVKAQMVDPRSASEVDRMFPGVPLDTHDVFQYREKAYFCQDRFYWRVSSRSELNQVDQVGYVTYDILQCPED
In words: MMP-9 (gelatinase B) inhibitory activity, FITC-labeled type IV collagen degradation. The class given is biochemical. The following applies: 50% inhibition of collagen type IV degradation; MMP-9 derived from human fibrosarcoma; 42° C., 4 h. On the procedure:
as §1, §2

By IC50 is commonly meant the concentration needed to halve the response being measured.

For `CNC(=O)[C@H](Cc1ccccc1)NC(=O)[C@H](CCc1ccc2cccccc1-2)CC(=O)O` [Compound 2, N-[(2R)-2-(1'-Carboxymethyl)-4-(azulene-1-yl)butyroyl]-L-phenylalanine N-Methylamide], the figures for the IC50 against MMP-2 (gelatinase A) and on MMP-9 (gelatinase B) were 390 nM and 1300 nM, respectively.

With `CNC(=O)[C@H](Cc1ccc(OC)cc1)NC(=O)[C@H](CCc1ccc2cccccc1-2)CC(=O)O` [Compound 3, (2S)-2-[(2R)-2-(1'-Carboxymethyl)-4-(azulene-1-yl)butyroyl)amino-3-(4-methoxy)phenylpropanoylmethylamide], the concentration for half-maximal inhibition (IC50) against MMP-2 (gelatinase A) was determined as 240 nM; against MMP-9 (gelatinase B), 280 nM.

For the compound `CNC(=O)[C@@H](NC(=O)[C@H](CCc1ccc2cccccc1-2)CC(=O)O)C(C)(C)C` [Compound 4, N-[(2R)-2-(1'-Carboxymethyl)-4-(azulene-1-yl)butyroyl]-L-tert-leucine N-Methylamide], the IC50 against MMP-2 (gelatinase A) was 1000 nM; against MMP-9 (gelatinase B), 300 nM.

Turning to `CNC(=O)[C@H](Cc1ccccc1)NC(=O)[C@H](CCCc1ccc2cccccc1-2)CC(=O)O` [Compound 5, N-[(2R)-2-(1'-Carboxymethyl)-5-(azulene-1-yl)pentanoyl]-L-phenylalanine N-Methylamide], the results for the IC50 at MMP-2 (gelatinase A) and against MMP-9 (gelatinase B) were above 10000 nM and 2800 nM, respectively.

Regarding `CCOc1ccc(C[C@H](NC(=O)[C@H](CCc2ccc3cccccc2-3)CC(=O)O)C(=O)NC)cc1` [Compound 6, (2S)-2-[(2R)-2-(1'-Carboxymethyl)-4-(azulene-1-yl)butyroyl]amino-3-(4-ethoxy)phenylpropanoyl methylamide], the IC50 against MMP-2 (gelatinase A) amounted to 1000 nM; at MMP-9 (gelatinase B) it was 360 nM.

As to `CNC(=O)[C@H](Cc1ccccc1)NC(=O)[C@H](CCCCc1ccc2cccccc1-2)CC(=O)O` [Compound 7, N-[(2R)-2-(1'-Carboxymethyl)-6-(azulene-1-yl)hexanoyl]-L-phenylalanine N-Methylamide], the IC50 against MMP-2 (gelatinase A) is above 10000 nM; on MMP-9 (gelatinase B) it was 3000 nM.

As to `CNC(=O)[C@H](Cc1ccccc1)NC(=O)[C@H](CCOc1ccc(OC)cc1)CC(=O)O` [Compound 8, N-[(2R)-2-(1'-Carboxymethyl)-4-[(4-methoxyphenyl)oxy]butyroyl]-L-phenylalanine N-Methylamide], the IC50 amounted to 160 nM at MMP-2 (gelatinase A) and 35 nM against MMP-9 (gelatinase B).

Regarding `CCOc1ccc(OCC[C@H](CC(=O)O)C(=O)N[C@@H](Cc2ccccc2)C(=O)NC)cc1` [Compound 9, N-[(2R)-2-(1'-Carboxymethyl)-4-[(4-ethoxyphenyl)oxy]butyroyl]-L-phenylalanine N-Methylamide], the IC50 turned out to be 49 nM against MMP-2 (gelatinase A) and 39 nM against MMP-9 (gelatinase B).

As for `CNC(=O)[C@H](Cc1ccccc1)NC(=O)[C@H](CCCOc1ccc(OC)cc1)CC(=O)O` [Compound 10, N-[(2R)-2-(1'-Carboxymethyl)-5-[(4-methoxyphenyl)oxy]pentanoyl]-L-phenylanine N-Methylamide], the values for the IC50 at MMP-2 (gelatinase A) and at MMP-9 (gelatinase B) were 50 nM and 5.1 nM, respectively.

Consider `COc1ccc(OCCC[C@H](CC(=O)O)C(=O)N[C@@H](Cc2ccccc2)C(=O)NC(C)(C)C)cc1` [Compound 11], for which the IC50 worked out at 100 nM at MMP-2 (gelatinase A) and 14 nM against MMP-9 (gelatinase B).

For `COc1ccc(OCCC[C@H](CC(=O)O)C(=O)N[C@@H](Cc2ccccc2)C(=O)NCCS(N)(=O)=O)cc1` [Compound 12, 2-[[N-(2R)-2-(1'-Carboxymethyl)-5-[(4-methoxyphenyl)oxy]pentanoyl]-L-phenylalanyl]amino-ethanesulfonamid], the IC50 at MMP-2 (gelatinase A) was 21 nM; on MMP-9 (gelatinase B) it was 3 nM.

In the case of `CCOc1ccc(OCCC[C@H](CC(=O)O)C(=O)N[C@@H](Cc2ccccc2)C(=O)NC)cc1` [Compound 13, N-[(2R)-2-(1'-Carboxymethyl)-5-[(4-ethoxyphenyl)oxy]pentanoyl]-L-phenylalanine N-Methylamide], the figures for the half-inhibitory concentration (IC50) at MMP-2 (gelatinase A) and on MMP-9 (gelatinase B) were 18 nM and 13 nM, respectively.

On to `CNC(=O)[C@H](Cc1ccccc1)NC(=O)[C@H](CCCCOc1ccc(OC)cc1)CC(=O)O` [Compound 14], for which the IC50 against MMP-2 (gelatinase A) worked out at 160 nM; on MMP-9 (gelatinase B), 120 nM.

Take `CCOc1ccc(OCCCC[C@H](CC(=O)O)C(=O)N[C@@H](Cc2ccccc2)C(=O)NC)cc1` [Compound 15, N-((2R)-2-(1'-Carboxymethyl)-6-[(4-ethoxyphenyl)oxy]hexanoyl]-L-phenylananine N-Methylamide]: the half-maximal inhibitory concentration (IC50) against MMP-2 (gelatinase A) was found to be 61 nM; against MMP-9 (gelatinase B) it was 420 nM.

In the case of `C=CCOc1ccc(OCCCC[C@H](CC(=O)O)C(=O)N[C@@H](Cc2ccccc2)C(=O)NC)cc1` [Compound 16, N-[(2R)-2-(1'-Carboxymethyl)-6-[(4-allyloxyphenyl)oxy]hexanoyl]-L-phenylananine N-Methylamide], the figures for the IC50 against MMP-2 (gelatinase A) and against MMP-9 (gelatinase B) were 180 nM and 1000 nM, respectively.

Regarding `CNC(=O)[C@H](Cc1ccc(OC)cc1)NC(=O)[C@H](CCOc1ccc(OC)cc1)CC(=O)O` [Compound 17, (2S)-2-[(2R)-2-(1'-Carboxymethyl)-4-[(4-methoxyphenyl)-oxy]butyroyl]amino-3-(4-methoxy)phenylpropanoylmethylamide], the 50% inhibitory concentration (IC50) came to 46 nM against MMP-2 (gelatinase A) and 13 nM against MMP-9 (gelatinase B).

Take `CNC(=O)[C@H](Cc1ccc(OC)cc1)NC(=O)[C@H](CCCOc1ccc(OC)cc1)CC(=O)O` [Compound 18]: the results for the IC50 against MMP-2 (gelatinase A) and at MMP-9 (gelatinase B) were 250 nM and 5.4 nM, respectively.

Consider `COc1ccc(C[C@H](NC(=O)[C@H](CCCOc2ccc(OC)cc2)CC(=O)O)C(=O)NC(C)(C)C)cc1` [Compound 19, (2S)-2-[(2R)-2-(1'Carboxymethyl)-5-[(methoxyphenyl)oxy]pentanoyl]amino-3-(4-methoxy)phenylpropanoyl-tert-butylamide], for which the IC50 turned out to be 76 nM against MMP-2 (gelatinase A) and 13 nM on MMP-9 (gelatinase B).

`COc1ccc(C[C@H](NC(=O)[C@H](CCCOc2ccc(OC)cc2)CC(=O)O)C(=O)NCCS(N)(=O)=O)cc1` [Compound 20]: the values for the concentration for half-maximal inhibition (IC50) against MMP-2 (gelatinase A) and against MMP-9 (gelatinase B) were 16 nM and 2.9 nM, respectively.

With `CNC(=O)[C@H](Cc1ccc(OC)cc1)NC(=O)[C@H](CCCCOc1ccc(OC)cc1)CC(=O)O` [Compound 21, (2S)-2-[(2R)-2-(1'-Carboxymethyl)-6-[(4-methoxyphenyl)-oxy]hexanoyl]amino-3-(4-methoxy)phenylpropanoylmethylamide], the IC50 was 160 nM against MMP-2 (gelatinase A) and 52 nM against MMP-9 (gelatinase B).

As for `CCOc1ccc(C[C@H](NC(=O)[C@H](CCCOc2ccc(OC)cc2)CC(=O)O)C(=O)NC)cc1` [Compound 22, (2S)-2-[(2R)-2-(1'-Carboxymethyl)-5-[(4-methoxyphenyl)-oxy]pentanoyl]amino-3-(4-ethoxy)phenylpropanoylmethylamide], the results for the IC50 against MMP-2 (gelatinase A) and at MMP-9 (gelatinase B) were 140 nM and 9.5 nM, respectively.

`CCOc1ccc(C[C@H](NC(=O)[C@H](CCCCOc2ccc(OC)cc2)CC(=O)O)C(=O)NC)cc1` [Compound 23, (2S)-2-[(2R)-2-(1'-Carboxymethyl)-6-[(4-methoxyphenyl)oxy]hexanoyl]amino-3-(4-ethoxy)phenylpropanoylmethylamide]: the IC50 worked out at 200 nM against MMP-2 (gelatinase A) and 51 nM against MMP-9 (gelatinase B).

Consider `CNC(=O)[C@@H](NC(=O)[C@H](CCCOc1ccc(OC)cc1)CC(=O)O)C(C)(C)C` [Compound 24, N-[(2R)-2-(1'-Carboxymethyl)-5-[(4-methoxyphenyl)oxy]pentanoyl]-L-tert-leucine N-Methylamide], for which the results for the IC50 at MMP-2 (gelatinase A) and on MMP-9 (gelatinase B) were 140 nM and 7.2 nM, respectively.

Regarding `COc1ccc(OCCC[C@H](CC(=O)O)C(=O)N[C@H](C(=O)NC(C)(C)C)C(C)(C)C)cc1` [Compound 25, N-[(2R)-2-(1'-Carboxymethyl)-5-[(4-methoxyphenyl)oxy]pentanoyl]-L-tert-leucine N-tert-Butylamide], the IC50 at MMP-2 (gelatinase A) came to 200 nM; against MMP-9 (gelatinase B) it was 28 nM.

On to `COc1ccc(OCCC[C@H](CC(=O)O)C(=O)N[C@H](C(=O)NCCS(N)(=O)=O)C(C)(C)C)cc1` [Compound 26], for which the figures for the IC50 against MMP-2 (gelatinase A) and against MMP-9 (gelatinase B) were 48 nM and 6.5 nM, respectively.

Regarding `CNC(=O)[C@@H]1Cc2ccccc2CN1C(=O)[C@H](CCCOc1ccc(OC)cc1)CC(=O)O` [Compound 27, N-[(2R)-2-(1'-Carboxymethyl)-5-[(4-methoxyphenyl)oxy]pentanoyl]-L-tetrahydroisoquinoline N-Methylamide], the values for the IC50 on MMP-2 (gelatinase A) and against MMP-9 (gelatinase B) were above 10000 nM and 1500 nM, respectively.

For the origin of these results see patent US5990158A, “Carboxylic acid derivatives, method of manufacturing the same and therapeutic agents containing these compounds” (Kotobuki Seiyaku Co., Ltd., priority 1996, dated 1999).
